Data reported in PMC10178204, “Peptaibol Analogs Show Potent Antibacterial Activity against Multidrug Resistant Opportunistic Pathogens” (International Journal of Molecular Sciences, 2023).
In brackets after ≈: the same amount, converted by molar mass. Several values for one entry are separate records, joined by “and”; a condition that tells them apart may be missing. Equal values may be shown once. Non-standard residues stand in square brackets, D forms with d. Residues, ends and D or L forms follow the SMILES beside them. *: point of attachment. Leu(ol) = CC(C)C[C@H](N)CO; Octanoyl = CCCCCCCC(=O)*; Aib = CC(C)(N)C(=O)O

Legend:
[1] = tested on: A. baumannii SI-310 (OXA-24); conditions: colistin-resistant isolate; MHB, 5 × 10^5 CFU/mL, 18 h, 35 °C, triplicate
Method: (§1) The minimum inhibitory concentration (MIC) and the minimum bactericidal concentration (MBC) of the compounds were determined in triplicate using Mueller–Hinton broth (MHB). […] Therefore, we decided to dissolve all peptides in DMSO to a final concentration of 25 mg/mL, for consistency. The bacteria inoculum was 5 × 10^5 CFU/mL, as recommended by CLSI (Document M07-A10, 2015). […] Reference-type strains, including representatives of both Gram-positive bacteria (Bacillus subtilis ATCC 6633, Enterococcus faecalis ATCC 29212, Staphylococcus aureus ATCC 25923, the methicillin-resistant Staphylococcus aureus ATCC 43300 (MRSA), Streptococcus pyogenes ATCC 12344) and Gram-negative bacteria (Escherichia coli CCUGT, Klebsiella pneumoniae ATCC 13833, Pseudomonas aeruginosa ATCC 27853, and Acinetobacter baumannii ATCC 17978), were acquired from ATCC or CCUG culture collections. Other antibiotic-resistant clinical isolates were present in our collection at the University Teaching Hospital (Azienda Ospedaliero-Universitaria Senese ‘Santa Maria alle Scotte’) in Siena, Tuscany, Italy. Specifically, MDR carbapenem-hydrolyzing class D β-lactamase-producing Acinetobacter baumannii and metallo-β-lactamase-producing Pseudomonas aeruginosa were used in this study (Table 4).

[2] = tested on: A. baumannii SI-12 (OXA-23); conditions: MHB, 5 × 10^5 CFU/mL, 18 h, 35 °C, triplicate
Method: as §1

[3] = tested on: S. aureus ATCC 43300 (MRSA); conditions: MHB, 5 × 10^5 CFU/mL, 18 h, 35 °C, triplicate
Method: as §1

[4] = tested on: P. aeruginosa VR-143/97 (VIM-1); conditions: MHB, 5 × 10^5 CFU/mL, 18 h, 35 °C, triplicate
Method: as §1

[5] = tested on: A. baumannii SI-648 (OXA-23, OXA-51-like); conditions: MHB, 5 × 10^5 CFU/mL, 18 h, 35 °C, triplicate
Method: as §1

[6] = tested on: P. aeruginosa 506/99 (VIM-2); conditions: MHB, 5 × 10^5 CFU/mL, 18 h, 35 °C, triplicate
Method: as §1

[7] = tested on: P. aeruginosa 101/1477 (IMP-1); conditions: MHB, 5 × 10^5 CFU/mL, 18 h, 35 °C, triplicate
Method: as §1

[8] = tested on: P. aeruginosa VA-182/00 (VIM-2); conditions: MHB, 5 × 10^5 CFU/mL, 18 h, 35 °C, triplicate
Method: as §1

[9] = tested on: Streptococcus pyogenes ATCC 12344; conditions: MHB, 5 × 10^5 CFU/mL, 18 h, 35 °C, triplicate
Excerpt: (§2) The antibacterial activity of the peptides was initially assessed on a panel of representative Gram-positive and Gram-negative organisms of high clinical relevance and commonly responsible for bacterial infections in both animals and humans. Bacillus subtilis ATCC 6633 (Bsu) was also included as a rod-shaped model Gram-positive organism. This first panel comprised: Enterococcus faecalis ATCC 29212 (Efa); Streptococcus pyogenes ATCC 12344 (Spy); and Staphylococcus aureus ATCC 25923 (Sau); Gram-negative: Escherichia coli CCUGT (Eco), Klebsiella pneumoniae ATCC 13833 (Kpn), Acinetobacter baumannii ATCC 17978 (Aba), and Pseudomonas aeruginosa ATCC 27853 (Pae) (Table 2). Both the minimum inhibitory concentration (MIC, Table 2) and the minimum bactericidal concentration (MBC, Table S1, Supporting Material) were determined.
as §1

[10] = tested on: Acinetobacter baumannii ATCC 17978; conditions: for MIC against A. baumannii, in molar units: corresponding to 2 and 8 μg/mL
Excerpt: as §2, §1

[11] = tested on: Enterococcus faecalis ATCC 29212; conditions: MHB, 5 × 10^5 CFU/mL, 18 h, 35 °C, triplicate
Excerpt: as §2, §1

[12] = tested on: Bacillus subtilis ATCC 6633; conditions: MHB, 5 × 10^5 CFU/mL, 18 h, 35 °C, triplicate
Excerpt: as §2, §1

[13] = tested on: Staphylococcus aureus ATCC 25923; conditions: MHB, 5 × 10^5 CFU/mL, 18 h, 35 °C, triplicate
Excerpt: as §2, §1

[14] = tested on: Klebsiella pneumoniae ATCC 13833; conditions: MHB, 5 × 10^5 CFU/mL, 18 h, 35 °C, triplicate
Excerpt: as §2, §1

Escherichia coli CCUGT = conditions: MHB, 5 × 10^5 CFU/mL, 18 h, 35 °C, triplicate
Excerpt: as §2, §1

[15] = tested on: Pseudomonas aeruginosa ATCC 27853; conditions: MHB, 5 × 10^5 CFU/mL, 18 h, 35 °C, triplicate
Excerpt: as §2, §1

[16] = tested on: blood agar plate (Columbia CNA Agar); experiment: Hemolysis on blood agar plate; conditions: 35 ± 2 °C, 24 h; for Hemolysis (class): 50 μg peptide (2 μL of 25 mg/mL in DMSO) spotted on blood agar, visual, triplicate; for Hemolysis (d, diameter of hemolysis zone): 50 μg spotted on blood agar, average of triplicate
Method: Hemolysis zones were visually determined and measured. […] For two additional peptides (6 and 15), only a small hemolysis zone (diameter 4–5 mm) was visible, as compared to that of the positive control (Triton X-100, 13 mm).
Briefly, 2 μL of each peptide solution in DMSO (25 mg/mL), corresponding to 50 μg, was spotted on the surface of a blood agar plate (Columbia CNA Agar, Becton Dickinson Italia S.p.A., Florence, Italy). The plate was then incubated at 35 ± 2 °C for 24 h and visually inspected for the presence of hemolysis zones (see Figure S13, Supplementary Material). The experiment was performed in triplicate. Table 2 reports the average value of the diameter of hemolysis zones measured in each individual experiment. Triton X-100 was used as a positive control (diameter of the hemolysis zone: 13 mm), while DMSO was used as a negative control.
Figure S13. Implementation of the hemolysis test as described in Bechlars et al.. After spotting
2 µL (50 µg) of each compound at a random location on the blood agar plate and incubation at 35 ±
2 °C for 24 h, the plates were manually inspected for the presence of hemolysis zones. Triton X-100
and DMSO were used as the positive and negative controls, respectively. Results were interpreted
(1 picture or pasted object on this page, not shown here)

[17] = MHB, 5 × 10^5 CFU/mL, 18 h, 35 °C, triplicate

SMILES	MBC A. baumannii SI-310 (OXA-24) [1] [µg/mL]	MIC A. baumannii SI-310 (OXA-24) [1]	MBC A. baumannii SI-12 (OXA-23) [2] [µg/mL]	MIC A. baumannii SI-12 (OXA-23) [2]	MBC S. aureus ATCC 43300 (MRSA) [3] [µg/mL]	MIC S. aureus ATCC 43300 (MRSA) [3] [µg/mL]	MIC P. aeruginosa VR-143/97 (VIM-1) [4] [µg/mL]	MBC A. baumannii SI-648 (OXA-23, OXA-51-like) [5] [µg/mL]	MIC A. baumannii SI-648 (OXA-23, OXA-51-like) [5]	MIC P. aeruginosa 506/99 (VIM-2) [6] [µg/mL]	MIC P. aeruginosa 101/1477 (IMP-1) [7] [µg/mL]	MIC P. aeruginosa VA-182/00 (VIM-2) [8] [µg/mL]	MBC Spy [9] [µg/mL]	MIC Spy [9] [µg/mL]	MBC Aba [10, 17] [µg/mL]	MBC Efa [11] [µg/mL]	MIC Efa [11] [µg/mL]	MBC Bsu [12] [µg/mL]	MIC Bsu [12] [µg/mL]	MBC Sau [13] [µg/mL]	further results
CCCCCCCC(=O)NC(C)(C)C(=O)NCC(=O)N[C@@H](CC(C)C)C(=O)NC(C)(C)C(=O)NCC(=O)N[C@@H](CCCCN)C(=O)N[C@@H](CC(C)C)C(=O)NC(C)(C)C(=O)NCC(=O)N[C@H](C(=O)N[C@H](CO)CC(C)C)[C@@H](C)CC [Peptide 10, 1-Oct-Aib-Gly-Leu-Aib-Gly-Lys-Leu-Aib-Gly-Ile-Lol]	16 (≈ 14.1 µM)	16 μg/mL and 16/16 μg/mL	32 (≈ 28.1 µM)	32 μg/mL and 32/32 μg/mL	8 (≈ 7.03 µM)	4 (≈ 3.52 µM)	> 128	16 (≈ 14.1 µM)	16 μg/mL and 16/16 μg/mL	> 128	> 128	> 128	16 (≈ 14.1 µM)	4 (≈ 3.52 µM)	> 128	16 (≈ 14.1 µM)	4 (≈ 3.52 µM)	16 (≈ 14.1 µM)	4 (≈ 3.52 µM)	16 (≈ 14.1 µM)	MIC against A. baumannii, in molar units [10]: 1.8 to 7.2 µM; MIC Sau [13]: 8 µg/mL (≈ 7.03 µM); MBC Kpn [14]: 64 µg/mL (≈ 56.3 µM); MIC Kpn [14]: 16 µg/mL (≈ 14.1 µM); MBC Eco (Escherichia coli CCUGT): 128 µg/mL (≈ 113 µM); MIC Eco (Escherichia coli CCUGT): 64 µg/mL (≈ 56.3 µM); MBC Pae [15]: 128 µg/mL (≈ 113 µM); Hemolysis (class) [16]: +; Hemolysis (d, diameter of hemolysis zone) [16]: 11 mm
CCCCCCCC(=O)NC(C)(C)C(=O)NCC(=O)N[C@@H](CC(C)C)C(=O)NC(C)(C)C(=O)NCC(=O)NCC(=O)N[C@@H](CC(C)C)C(=O)NC(C)(C)C(=O)N[C@@H](CCCCN)C(=O)N[C@H](C(=O)N[C@H](CO)CC(C)C)[C@@H](C)CC [Peptide 9, 1-Oct-Aib-Gly-Leu-Aib-Gly-Gly-Leu-Aib-Lys-Ile-Lol] (Octanoyl-[Aib]GL[Aib]GGL[Aib]KI[Leu(ol)])	32 (≈ 28.1 µM)	32 μg/mL and 32/32 μg/mL	32 (≈ 28.1 µM)	32 μg/mL and 32/32 μg/mL	8 (≈ 7.03 µM)	4 (≈ 3.52 µM)	> 128	32 (≈ 28.1 µM)	32 μg/mL and 32/32 μg/mL	> 128	> 128	> 128	32 (≈ 28.1 µM)	16 (≈ 14.1 µM)	8 (≈ 7.03 µM)	4 (≈ 3.52 µM)	4 (≈ 3.52 µM)	16 (≈ 14.1 µM)	4 (≈ 3.52 µM)	16 (≈ 14.1 µM)	MIC against A. baumannii, in molar units [10]: 1.8 to 7.2 µM; MIC Sau [13]: 16 µg/mL (≈ 14.1 µM); MIC Kpn [14]: > 128 µg/mL; MIC Eco (Escherichia coli CCUGT): > 128 µg/mL; MIC Pae [15]: > 128 µg/mL; Hemolysis (class) [16]: +; Hemolysis (d, diameter of hemolysis zone) [16]: 10 mm
CCCCCCCC(=O)NC(C)(C)C(=O)N[C@@H](CCCCN)C(=O)N[C@@H](CC(C)C)C(=O)NC(C)(C)C(=O)NCC(=O)NCC(=O)N[C@@H](CC(C)C)C(=O)NC(C)(C)C(=O)NCC(=O)N[C@H](C(=O)N[C@@H](CC(C)C)C(N)=O)[C@@H](C)CC [Peptide 2, 1-Oct-Aib-Lys-Leu-Aib-Gly-Gly-Leu-Aib-Gly-Ile-Leu-NH2] (Octanoyl-[Aib]KL[Aib]GGL[Aib]GIL-NH2)	32 (≈ 27.8 µM)	32 μg/mL and 32/32 μg/mL	32 (≈ 27.8 µM)	32 μg/mL and 32/32 μg/mL	4 (≈ 3.48 µM)	2 (≈ 1.74 µM)	> 128	32 (≈ 27.8 µM)	16 µg/mL (≈ 13.9 µM)	> 128	> 128	> 128	4 (≈ 3.48 µM)	4 (≈ 3.48 µM)	16 (≈ 13.9 µM)	8 (≈ 6.95 µM)	4 (≈ 3.48 µM)	16 (≈ 13.9 µM)	4 (≈ 3.48 µM)	8 (≈ 6.95 µM)	MIC Aba [10, 17]: 16 µg/mL (≈ 13.9 µM); MIC Sau [13]: 8 µg/mL (≈ 6.95 µM); MBC Kpn [14]: > 128 µg/mL; MIC Kpn [14]: 64 µg/mL (≈ 55.6 µM); MIC Eco (Escherichia coli CCUGT): > 128 µg/mL; MIC Pae [15]: > 128 µg/mL; Hemolysis (class) [16]: +; Hemolysis (d, diameter of hemolysis zone) [16]: 8 mm
